Entries after “also recorded” stand apart in the source; their conditions may differ.
Test system: neuropathic rats
Experiment: EEG power spectra (delta, theta, sigma bands) during NREM and REM sleep
Format: in vivo, male Wistar rats
Procedure: EEG and EMG recording. Six days after surgery (16 days post-SNI), mechanical allodynia was assessed via von Frey test, and EEG/EMG was recorded for a period of 6 h (from 6 AM to 12 PM). The treatments (described below) were performed at 6:00 A.M., right after the recording had started. […] Consecutive 10 s epochs were subjected to a fast Fourier transform (FFT), and EEG power spectra density was computed in the frequency range of 0-64 Hz^13.
To determine the variations in power spectra induced by the pharmacological treatment of CBD and antagonists, the power densities were summed up over the frequency band of 0-25 Hz (total power). The data were then standardized by expressing all power spectral densities at the different 0.5 Hz bin frequency ranges (delta, theta, and sigma) as a percentage relative to the total power of the same epoch^16. Frequency ranges were 0-3.5Hz for delta, 4-8.5Hz for theta, and 11-14 Hz for sigma bands. The sum of power densities over a frequency band following treatments were expressed as the percentage difference from that in or naïve+veh or NP+vehicle group in statistical analysis. In the experiments with WAY 100635 the NP+CBD was compared with NP+vehicle, NP+WAY, NP+WAY+CBD.
To assess whether CBD (20 mg/kg) might affect the microarchitecture during the sleep, the intensity Delta (0.5-4 Hz), Theta ([…]) and Sigma (10-15 Hz) waves were measured during 6 hours of light phase in the 3 groups of rats (Naïve, SNI+VEH and SNI+CBD 20mg/kg). Data were converted as a percentage of variation vs. naive animals and One-way ANOVA was performed on the power of delta, theta and sigma waves during NREM and REN sleep.
To assess whether the 5-HT1A selective antagonist WAY 100635 (2 mg/kg) might reverse the effect of CBD (20 mg/kg) in the enhancement of power density (Delta, Theta, and Sigma waves) during sleep, the power spectra were measured for 6 hours in four groups of rats. The first group were NP rats treated with CBD vehicle (n=8), the second group were NP rats treated with WAY 100635 alone at 2 mg/kg (n=6), the third group were NP rats treated with WAY 100635 (2 mg/kg)+CBD (20 mg/kg; n=6), and the fourth group were NP treated with CBD at 20 mg/kg (n=8). Data were converted as a percentage of variation vs NP animals treated with vehicle.

Q: For `C=C(C)[C@@H]1CCC(C)=C[C@H]1c1c(O)cc(CCCCC)cc1O` [CBD, 2-[(1R,6R)-3-methyl-6-prop-1-en-2-ylcyclohex-2-en-1-yl]-5-pentylbenzene-1,3-diol], which “power of Sigma waves during REM sleep, relative to NP rats treated with vehicle” value (6 h, CBD 20 mg/kg) is on record?
A: no statistically significant differences between groups; also recorded: no differences were found

Q: And the “power of Theta waves during REM sleep, relative to NP animals treated with vehicle” value (6 h, CBD 20 mg/kg)?
A: no statistically significant differences between groups

Q: What about the “power of theta waves during NREM sleep, relative to NP animals treated with vehicle” value (6 h, CBD 20 mg/kg i.p.) of the same compound?
A: increases the intensity of the Theta waves; also recorded: increase in the theta power

Q: And the “Sigma waves during NREM sleep, relative to NP rats treated with vehicle” value (6 h, CBD 20 mg/kg, WAY 100635 2 mg/kg)?
A: no significant main effects; also recorded: did not detect differences

Q: And the “power of Delta waves during NREM sleep, relative to NP rats treated with vehicle” value (6 h light phase, CBD 20 mg/kg i.p.)?
A: increase in the intensity of the power of Delta waves

Q: What about the “power of Delta waves during REM sleep, between groups (ANOVA)” value (NP rats, 6 h, CBD 20 mg/kg, WAY 100635 2 mg/kg) of the same compound?
A: no statistically significant differences between groups

From patent US20230172874A1, “USE OF CANNABIDIOL FOR THE TREATMENT OF INSOMNIA ASSOCIATED TO PAIN” (priority 2021, published 2023)
